The target in assay [1] is T1, murine AChE (mAChE) (Mus musculus, UniProt P21836).
T1 sequence (P21836 32-614): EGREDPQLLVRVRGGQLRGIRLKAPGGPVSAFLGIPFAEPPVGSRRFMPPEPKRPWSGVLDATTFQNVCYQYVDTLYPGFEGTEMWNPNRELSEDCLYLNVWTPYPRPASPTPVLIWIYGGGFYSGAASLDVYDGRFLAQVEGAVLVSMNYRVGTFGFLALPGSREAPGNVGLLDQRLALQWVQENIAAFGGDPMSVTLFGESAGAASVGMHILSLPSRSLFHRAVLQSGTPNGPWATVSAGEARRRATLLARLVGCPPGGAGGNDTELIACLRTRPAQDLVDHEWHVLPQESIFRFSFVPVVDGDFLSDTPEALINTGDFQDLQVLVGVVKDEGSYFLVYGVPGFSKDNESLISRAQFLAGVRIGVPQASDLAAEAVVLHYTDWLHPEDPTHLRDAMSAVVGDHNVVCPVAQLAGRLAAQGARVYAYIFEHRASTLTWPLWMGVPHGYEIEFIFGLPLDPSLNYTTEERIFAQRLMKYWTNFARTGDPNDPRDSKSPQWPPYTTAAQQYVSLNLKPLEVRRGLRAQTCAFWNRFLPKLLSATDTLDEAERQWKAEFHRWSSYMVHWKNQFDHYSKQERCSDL
Kind of assay: biochemical.

Assay [2] addresses T1, murine AChE (mAChE). Put plainly: biochemical. The format is binding.
Assay [3] addresses T1, murine AChE (mAChE). Kind of assay: Equilibrium binding of TFT to mAChE.
The target of another assay is human recombinant AChE. The following applies: cited from earlier work.
The mark [4] stands for this setting: IC50 values (Mean ± SEM), Reduction of AChE activity.
Where [5] appears, read: IC50 values (Mean ± SEM), Reduction of TFT Fluorescence.
The mark [6] stands for this setting: read-out: IC50 values (Mean ± SEM), Reduction of AChE activity, pH 7.4.
[7] abbreviates: read-out: IC50 values (Mean ± SEM), Reduction of TFT Fluorescence, pH 7.4.

As usually defined, the IC50 is the concentration that inhibits the measured activity by half. As a reminder, the Kd is the equilibrium constant for the complex coming apart.

Where two headings read alike, the source gives them in different places.

As to `CNC(=O)Oc1cccc(C(C)(C)C)c1` [Compound 1, 3-tert-butylphenyl methylcarbamate], the half-inhibitory concentration (IC50) was determined as 62 nM at murine AChE (mAChE) [1] (setting [4]) and 25 nM on murine AChE (mAChE) [2] (setting [5]). The “Ratio = IC50 TFT assay/IC50 Ellman assay” value on murine AChE (mAChE) [2] is given as 0.4.
For `CC[N+](C)(CC)CCC[n+]1c(-c2ccccc2)c2cc(N)ccc2c2ccc(N)cc21` [Propidium Iodide, propidium iodide], the IC50 was determined as 700 nM at murine AChE (mAChE) [1] (IC50, Ellman assay); 662 nM against murine AChE (mAChE) [1] (setting [4]); 700 nM at murine AChE (mAChE) [2] (IC50, TFT assay); 670 nM on murine AChE (mAChE) [2] (setting [5]). For the same molecule, the “Ratio = IC50 TFT assay/IC50 Ellman assay” value at murine AChE (mAChE) [2] worked out at 1.0. Further, the “TFT fluorescence remaining after adding propidium iodide” value at murine AChE (mAChE) [2] came out at 0%.
As to `CNC(=O)Oc1ccccc1OC(C)C` [Propoxur, propoxur], half-maximal inhibition at murine AChE (mAChE) [1] (setting [4]) (IC50) required 466 nM. Moreover, on murine AChE (mAChE) [2], the “Ratio = IC50 TFT assay/IC50 Ellman assay” value came out at 0.13 and the “fold lower IC50 in TFT assay than in Ellman assay” value turned out to be 7.7 fold. The molecule further had an IC50 against murine AChE (mAChE) [2] (setting [5]) of 60 nM.
Take `CC[n+]1c(-c2ccccc2)c2cc(N)ccc2c2ccc(N)cc21` [Ethidium Bromide, ethidium bromide]: on murine AChE (mAChE) [1] (setting [4]), the IC50 came out at 4000 nM. On murine AChE (mAChE) [2], the “Ratio = IC50 TFT assay/IC50 Ellman assay” value was determined as 4.1 and the “TFT/Ellman IC50 ratio” value is listed as “around four times higher”. This molecule also showed an IC50 against murine AChE (mAChE) [2] (setting [5]) of 16000 nM.
As for `CCC(C)CSc1ccccc1OC(=O)NC` (stereo not shown) [Compound 2, 2-(2-methylbutylthio)phenyl methylcarbamate], the IC50 came to 10300 nM against murine AChE (mAChE) [1] (setting [4]) and 8900 nM on murine AChE (mAChE) [2] (setting [5]). For the same molecule, the “Ratio = IC50 TFT assay/IC50 Ellman assay” value at murine AChE (mAChE) [2] was 0.9.
In the same order, the values of `CNC(=O)O/N=C/C(C)(C)SC` [Aldicarb, aldicarb] are 645 nM, 565 nM and 0.9.
In the same order, the values of `CNC(=O)Oc1cccc2c1OC(C)(C)O2` [Bendiocarb, bendiocarb] are 46 nM, 20 nM and 0.4.
In the same order, the values of `Cc1nc(N(C)C)nc(OC(=O)N(C)C)c1C` [Pirimicarb, pirimicarb] are 738 nM, 454 nM and 0.6.
Take `Cc1ccc2c(c1)sc(-c1ccc(N(C)C)cc1)[n+]2C` [TFT, thioflavin-T]: the Kd was 1400 ± 200 nM on murine AChE (mAChE) [3]; 890 nM at human recombinant AChE (read-out: Kd of TFT, ref De Ferrari et al. [17]); 360 nM at human recombinant AChE (read-out: Kd of TFT, ref Sultatos and Kaushik [13]). In addition, on murine AChE (mAChE) [3] (10 uM TFT), the “increase of TFT fluorescence in the presence of mAChE over free solution” value was determined as 1.96 fold. The “Bmax, maximum specific TFT fluorescence in the presence of mAChE” value on murine AChE (mAChE) [3] (mean ± SEM, n = 7) is reported as 562 ± 23 fluorescent units.
In the case of `COc1cc2c3cc1Oc1cc(ccc1O)C[C@@H]1c4c(cc(OC)c(O)c4Oc4ccc(cc4)C[C@@H]3N(C)CC2)CC[N+]1(C)C` [Tubocurarine, d-tubocurarine], the IC50 on murine AChE (mAChE) [1] (IC50, Ellman assay) is 50000 to 70000 nM; on murine AChE (mAChE) [1] (setting [4]), 69000 nM; on murine AChE (mAChE) [2] (IC50, TFT assay) it was 50000 to 70000 nM; on murine AChE (mAChE) [2] (setting [5]), 50000 nM. Further, the “Ratio = IC50 TFT assay/IC50 Ellman assay” value on murine AChE (mAChE) [2] was determined as 0.7.
In the case of benzylpiperidine, the IC50 at murine AChE (mAChE) [1] (setting [6]) was 167000 nM; on murine AChE (mAChE) [2] (setting [7]) it was 159000 nM; on murine AChE (mAChE) [2] (read-out: potency (IC50) for reducing thioflavin-T fluorescence) it was 159000 nM. Besides, at murine AChE (mAChE) [2], the “Ratio = IC50 TFT assay/IC50 Ellman assay” value is listed as 0.95. The “maximum percentage reduction of total TFT fluorescence” value on murine AChE (mAChE) [2] is on record as “around 30%”.
For `C=CC[N+](C)(C)c1ccc(CCC(=O)CCc2ccc([N+](C)(C)CC=C)cc2)cc1.[Br-].[Br-]` [BW284C51, BW284c51], the IC50 came to 4.4 nM on murine AChE (mAChE) [1] (setting [6]) and 8.3 nM on murine AChE (mAChE) [2] (setting [7]). In addition, the “Ratio = IC50 TFT assay/IC50 Ellman assay” value on murine AChE (mAChE) [2] is reported as 1.9.
In turn, `CC[N+](C)(C)c1cccc(O)c1` [Edrophonium, edrophonium] had an IC50 against murine AChE (mAChE) [1] (setting [4]) of 3430 nM. In addition, on murine AChE (mAChE) [2], the “Ratio = IC50 TFT assay/IC50 Ellman assay” value is 0.33, the “fold lower IC50 in TFT assay than in Ellman assay” value was 3 fold and the “maximum percentage reduction of total TFT fluorescence” value is recorded as “around 30%”. On murine AChE (mAChE) [2] (setting [5]), the IC50 stood at 1120 nM.

These data come from publication PMC3758491 (Pesticide biochemistry and physiology, 2013).
